Assay results published in ChEMBL document CHEMBL1201862, “PubChem BioAssay data set” (2004).
Active and inactive are the calls of the source.

Legend:
[1] = target: Induced myeloid leukemia cell differentiation protein Mcl-1 (Homo sapiens, UniProt Q07820); format: functional
[2] = target: Nonstructural protein 1 (Influenza A virus, UniProt Q194T2); format: functional, Influenza A virus (A/California/07/2009(H1N1))
[3] = target: Ion channel NompC (Danio rerio, UniProt Q7T1G6); experiment: Dose response cell-based high-throughput screening assay for agonists of the transient receptor potential channel N1 (TRPN1). [Related pubchem assays (depositor defined):AID1424, AID1448]; format: functional
Ion channel NompC, sequence (Q7T1G6 whole entry): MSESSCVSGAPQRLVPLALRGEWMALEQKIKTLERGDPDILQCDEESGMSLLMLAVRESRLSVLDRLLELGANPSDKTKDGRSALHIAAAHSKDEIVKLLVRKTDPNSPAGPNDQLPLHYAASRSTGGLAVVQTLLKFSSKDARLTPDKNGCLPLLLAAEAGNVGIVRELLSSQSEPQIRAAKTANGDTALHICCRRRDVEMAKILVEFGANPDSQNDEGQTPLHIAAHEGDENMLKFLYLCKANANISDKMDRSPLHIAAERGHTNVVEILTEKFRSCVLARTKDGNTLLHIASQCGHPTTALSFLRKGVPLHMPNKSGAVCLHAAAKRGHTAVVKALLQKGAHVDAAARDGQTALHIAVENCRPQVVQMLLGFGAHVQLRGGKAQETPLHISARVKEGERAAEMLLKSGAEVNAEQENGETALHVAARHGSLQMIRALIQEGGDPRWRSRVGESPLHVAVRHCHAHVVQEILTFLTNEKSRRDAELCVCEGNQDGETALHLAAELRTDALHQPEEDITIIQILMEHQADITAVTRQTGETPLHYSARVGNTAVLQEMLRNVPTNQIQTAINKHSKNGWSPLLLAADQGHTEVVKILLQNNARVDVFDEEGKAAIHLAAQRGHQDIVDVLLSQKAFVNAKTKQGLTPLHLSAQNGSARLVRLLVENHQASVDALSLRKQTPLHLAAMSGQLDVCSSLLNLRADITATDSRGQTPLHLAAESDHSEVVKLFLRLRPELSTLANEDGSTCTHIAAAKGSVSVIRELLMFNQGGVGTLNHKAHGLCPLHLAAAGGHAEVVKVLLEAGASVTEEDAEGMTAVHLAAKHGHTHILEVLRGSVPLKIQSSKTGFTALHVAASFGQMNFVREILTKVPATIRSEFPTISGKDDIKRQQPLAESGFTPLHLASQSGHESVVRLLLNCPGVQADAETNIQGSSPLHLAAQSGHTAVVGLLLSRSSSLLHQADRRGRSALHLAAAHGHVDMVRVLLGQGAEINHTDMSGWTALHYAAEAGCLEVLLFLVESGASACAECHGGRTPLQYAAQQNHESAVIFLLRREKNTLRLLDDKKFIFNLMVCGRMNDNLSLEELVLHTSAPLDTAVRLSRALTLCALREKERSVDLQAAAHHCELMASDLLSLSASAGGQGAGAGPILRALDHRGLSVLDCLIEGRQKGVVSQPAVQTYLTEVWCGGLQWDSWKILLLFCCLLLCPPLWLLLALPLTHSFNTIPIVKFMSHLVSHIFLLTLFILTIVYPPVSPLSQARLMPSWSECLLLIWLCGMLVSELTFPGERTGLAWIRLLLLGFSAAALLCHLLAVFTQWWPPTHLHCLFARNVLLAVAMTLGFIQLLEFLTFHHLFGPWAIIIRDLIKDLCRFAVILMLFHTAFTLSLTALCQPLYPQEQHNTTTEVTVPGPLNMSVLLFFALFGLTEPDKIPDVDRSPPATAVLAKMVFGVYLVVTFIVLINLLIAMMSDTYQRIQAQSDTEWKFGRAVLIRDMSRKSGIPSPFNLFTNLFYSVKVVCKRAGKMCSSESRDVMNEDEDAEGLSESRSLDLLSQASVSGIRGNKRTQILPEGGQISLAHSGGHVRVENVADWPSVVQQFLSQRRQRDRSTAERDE

[4] = target: T1, Mucolipin-3 (Homo sapiens, UniProt Q8TDD5); experiment: Fluorescence counterscreen assay for […] agonists: dose response cell-based high-throughput screening assay to identify agonists of the transient receptor potential channel ML3 (TRPML3). [Related pubchem assays: 1424, 1448 ]; format: functional
T1 sequence (Q8TDD5 whole entry): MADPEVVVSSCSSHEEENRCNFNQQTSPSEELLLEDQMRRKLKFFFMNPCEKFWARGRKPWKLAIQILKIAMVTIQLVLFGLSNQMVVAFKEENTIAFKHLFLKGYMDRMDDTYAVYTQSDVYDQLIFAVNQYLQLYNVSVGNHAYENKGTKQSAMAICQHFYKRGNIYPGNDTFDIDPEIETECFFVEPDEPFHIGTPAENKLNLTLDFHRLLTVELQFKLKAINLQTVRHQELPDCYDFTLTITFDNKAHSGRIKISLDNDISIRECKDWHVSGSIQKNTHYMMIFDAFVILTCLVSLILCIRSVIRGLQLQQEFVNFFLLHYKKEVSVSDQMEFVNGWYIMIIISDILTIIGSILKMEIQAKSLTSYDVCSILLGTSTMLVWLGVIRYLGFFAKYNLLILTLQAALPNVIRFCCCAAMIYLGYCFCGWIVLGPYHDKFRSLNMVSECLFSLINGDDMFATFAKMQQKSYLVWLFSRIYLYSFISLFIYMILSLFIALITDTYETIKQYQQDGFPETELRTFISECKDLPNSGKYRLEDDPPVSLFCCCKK

[5] = target: FAD-linked sulfhydryl oxidase ALR (Homo sapiens, UniProt P55789); experiment: ALR-catalysed DTT oxidation blockers – biochemical, H2O2 detection, luminescence, cherry-pick, dose response (AID 493248)
FAD-linked sulfhydryl oxidase ALR, sequence (P55789 whole entry): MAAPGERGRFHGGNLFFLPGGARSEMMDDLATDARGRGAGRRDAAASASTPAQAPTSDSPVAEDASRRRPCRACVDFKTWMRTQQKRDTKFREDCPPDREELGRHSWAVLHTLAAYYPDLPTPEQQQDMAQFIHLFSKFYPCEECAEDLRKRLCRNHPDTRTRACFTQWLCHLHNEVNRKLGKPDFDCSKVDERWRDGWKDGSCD

[6] = target: T2, NADPH oxidase 1 (Homo sapiens, UniProt Q9Y5S8); experiment: Luminescence-based cell-based dose response assay to identify inhibitors of NADPH oxidase 1 (NOX1).; format: functional
T2 sequence (Q9Y5S8 whole entry): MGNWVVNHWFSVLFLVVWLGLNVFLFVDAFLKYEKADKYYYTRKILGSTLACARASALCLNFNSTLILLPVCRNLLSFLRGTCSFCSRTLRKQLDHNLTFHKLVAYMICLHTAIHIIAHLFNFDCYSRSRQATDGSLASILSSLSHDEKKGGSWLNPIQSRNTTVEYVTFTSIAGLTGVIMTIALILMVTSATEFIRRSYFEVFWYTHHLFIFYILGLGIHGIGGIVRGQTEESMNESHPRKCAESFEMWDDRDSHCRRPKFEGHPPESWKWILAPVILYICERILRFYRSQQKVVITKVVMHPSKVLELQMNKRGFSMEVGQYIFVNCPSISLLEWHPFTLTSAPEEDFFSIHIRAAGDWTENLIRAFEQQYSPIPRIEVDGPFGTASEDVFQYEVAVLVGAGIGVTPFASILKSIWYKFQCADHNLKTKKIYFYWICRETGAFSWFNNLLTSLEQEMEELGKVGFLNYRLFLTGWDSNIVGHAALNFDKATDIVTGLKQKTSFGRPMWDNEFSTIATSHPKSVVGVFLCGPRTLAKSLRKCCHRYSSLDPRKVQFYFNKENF

[7] = viability loss of HPDE-C7K cells – cell-based, fluorescence, HTS, primary screen (AID 431); format: functional; settings: Homo sapiens
[8] = Trypanosoma cruzi growth suppression in host cells – NIH3T3 host cells, beta-gal luminescence, confirmation (AID 2044); format: functional, cell-based;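 further: intracellular parasites grown in NIH/3T3 mouse fibroblasts as host cells; luminescent beta-galactosidase reporter signal from transgenic T. cruzi replicating inside host cells; inhibitors lower the luminescence signal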
[9] = target: T3, Protein RecA (Mycobacterium tuberculosis, UniProt P9WHJ3); experiment: Fluorescence Cell-Free Homogeneous Dose Retest to Identify Inhibitors of RecA-Intein Splicing Activity. [Related pubchem assays (depositor defined):AID2097, AID2223, AID489010, AID492950]; format: functional
T3 sequence (P9WHJ3 whole entry): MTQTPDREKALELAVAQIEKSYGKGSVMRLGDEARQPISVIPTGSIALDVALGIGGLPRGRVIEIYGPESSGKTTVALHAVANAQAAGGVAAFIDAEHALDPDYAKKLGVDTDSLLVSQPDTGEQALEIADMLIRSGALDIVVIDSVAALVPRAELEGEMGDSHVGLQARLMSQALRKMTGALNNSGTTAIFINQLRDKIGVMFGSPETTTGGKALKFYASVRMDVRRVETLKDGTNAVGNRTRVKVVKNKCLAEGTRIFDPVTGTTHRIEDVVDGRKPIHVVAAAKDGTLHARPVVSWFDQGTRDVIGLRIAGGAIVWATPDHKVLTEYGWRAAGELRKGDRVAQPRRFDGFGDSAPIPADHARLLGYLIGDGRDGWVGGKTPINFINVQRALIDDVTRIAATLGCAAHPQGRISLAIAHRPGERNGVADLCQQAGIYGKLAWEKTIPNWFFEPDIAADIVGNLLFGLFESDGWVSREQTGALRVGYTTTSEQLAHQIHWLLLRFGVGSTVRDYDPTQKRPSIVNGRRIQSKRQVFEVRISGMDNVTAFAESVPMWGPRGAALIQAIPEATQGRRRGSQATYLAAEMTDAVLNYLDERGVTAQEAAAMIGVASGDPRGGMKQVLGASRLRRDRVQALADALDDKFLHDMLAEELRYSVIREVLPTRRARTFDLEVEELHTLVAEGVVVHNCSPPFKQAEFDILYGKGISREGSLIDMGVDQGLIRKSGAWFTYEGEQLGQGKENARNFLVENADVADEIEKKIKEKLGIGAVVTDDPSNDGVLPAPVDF

[10] = target: T4, Replicative DNA helicase DnaB (Mycobacterium tuberculosis, UniProt P9WMR3); experiment: DnaB intein splicing inhibitors, dose response, biochemical, cell-free fluorescence (AID 449749); format: functional
T4 sequence (P9WMR3 whole entry): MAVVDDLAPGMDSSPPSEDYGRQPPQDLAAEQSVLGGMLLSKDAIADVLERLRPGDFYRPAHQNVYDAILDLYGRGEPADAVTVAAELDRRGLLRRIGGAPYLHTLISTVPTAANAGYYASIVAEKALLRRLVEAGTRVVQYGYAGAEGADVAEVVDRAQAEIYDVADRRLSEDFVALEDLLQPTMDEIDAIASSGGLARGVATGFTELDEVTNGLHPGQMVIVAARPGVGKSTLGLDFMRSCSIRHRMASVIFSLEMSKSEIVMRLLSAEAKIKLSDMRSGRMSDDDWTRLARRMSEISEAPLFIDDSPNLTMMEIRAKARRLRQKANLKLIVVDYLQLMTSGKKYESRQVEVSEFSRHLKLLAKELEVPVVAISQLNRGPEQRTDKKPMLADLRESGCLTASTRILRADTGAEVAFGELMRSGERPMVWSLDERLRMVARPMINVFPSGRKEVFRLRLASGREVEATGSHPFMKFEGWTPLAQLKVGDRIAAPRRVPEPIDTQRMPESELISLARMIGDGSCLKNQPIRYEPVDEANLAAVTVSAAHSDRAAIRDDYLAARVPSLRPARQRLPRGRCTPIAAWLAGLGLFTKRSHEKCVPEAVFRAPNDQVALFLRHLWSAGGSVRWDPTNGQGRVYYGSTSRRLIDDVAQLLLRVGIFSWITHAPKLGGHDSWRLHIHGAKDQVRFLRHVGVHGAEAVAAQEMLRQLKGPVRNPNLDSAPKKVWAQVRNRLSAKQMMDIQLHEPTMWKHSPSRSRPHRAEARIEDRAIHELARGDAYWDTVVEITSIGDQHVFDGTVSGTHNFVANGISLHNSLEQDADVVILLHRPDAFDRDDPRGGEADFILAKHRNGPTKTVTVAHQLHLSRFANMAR

[11] = target: DNA damage-inducible transcript 3 protein (Mus musculus, UniProt P35639); format: functional, Cricetulus griseus
DNA damage-inducible transcript 3 protein, sequence (P35639 whole entry): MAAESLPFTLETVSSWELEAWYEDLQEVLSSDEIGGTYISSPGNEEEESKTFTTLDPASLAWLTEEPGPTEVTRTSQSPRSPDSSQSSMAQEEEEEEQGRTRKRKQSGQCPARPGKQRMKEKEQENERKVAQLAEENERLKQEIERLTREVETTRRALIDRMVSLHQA

[12] = HPDE-C7 pancreatic duct cell viability loss – fluorescence, HTS (AID 430); format: functional, cell-based; settings: Homo sapiens
[13] = NIH3T3 cell viability loss – ATP luminescence, mouse fibroblasts, counter-screen, dose response (AID 2010); format: functional, cell-based;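 further: cells exposed to compound for about 90 hours before reading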
[14] = Luminescent dose response cell-based high throughput screening assay for inhibitors of the Janus kinase 2 mutant JAK2V617F. [Related pubchem assays: 1446 (Primary screen.), 1521 (Confirmation assay.), 1486 (Counter screen.)]; format: functional
[15] = system: T-cell; experiment: loss of vesicle association with mouse CD8+ T cells – mouse 2C CD8+ T cells, flow cytometry, dose response (AID 485284); format: functional
[16] = target: T5, Coagulation factor XII (Homo sapiens, UniProt P00748); experiment: Factor XIIa Dose Response Confirmation from Single Well HTS. [Related pubchem assays (depositor defined):AID701]; format: functional
T5 sequence (P00748 whole entry): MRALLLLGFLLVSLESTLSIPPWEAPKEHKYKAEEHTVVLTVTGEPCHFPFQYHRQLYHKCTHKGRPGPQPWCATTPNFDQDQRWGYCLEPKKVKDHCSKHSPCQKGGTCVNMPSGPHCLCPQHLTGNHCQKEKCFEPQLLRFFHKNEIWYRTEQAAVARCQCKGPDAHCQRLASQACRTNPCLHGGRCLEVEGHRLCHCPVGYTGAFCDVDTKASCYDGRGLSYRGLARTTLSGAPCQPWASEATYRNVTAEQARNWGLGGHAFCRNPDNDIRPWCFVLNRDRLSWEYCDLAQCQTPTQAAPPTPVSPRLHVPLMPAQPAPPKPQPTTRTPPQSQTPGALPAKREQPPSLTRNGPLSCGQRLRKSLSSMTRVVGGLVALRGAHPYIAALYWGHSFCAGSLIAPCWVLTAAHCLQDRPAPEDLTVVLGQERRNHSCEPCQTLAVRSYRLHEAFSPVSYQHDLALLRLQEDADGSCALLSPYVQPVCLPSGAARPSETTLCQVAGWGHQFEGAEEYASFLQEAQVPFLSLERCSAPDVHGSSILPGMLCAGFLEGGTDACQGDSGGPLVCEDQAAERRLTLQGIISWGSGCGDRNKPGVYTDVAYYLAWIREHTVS

Induced myeloid leukemia cell differentiation protein Mcl-1, sequence (Q07820 whole entry): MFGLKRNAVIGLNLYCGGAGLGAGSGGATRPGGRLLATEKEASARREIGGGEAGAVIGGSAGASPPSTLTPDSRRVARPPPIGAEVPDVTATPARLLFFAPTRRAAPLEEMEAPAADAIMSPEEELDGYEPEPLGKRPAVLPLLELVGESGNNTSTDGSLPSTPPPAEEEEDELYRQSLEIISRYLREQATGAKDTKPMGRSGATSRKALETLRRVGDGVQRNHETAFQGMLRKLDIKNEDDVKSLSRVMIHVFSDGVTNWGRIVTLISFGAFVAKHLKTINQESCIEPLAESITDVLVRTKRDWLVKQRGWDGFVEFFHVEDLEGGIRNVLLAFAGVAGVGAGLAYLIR
Nonstructural protein 1, sequence (Q194T2 whole entry): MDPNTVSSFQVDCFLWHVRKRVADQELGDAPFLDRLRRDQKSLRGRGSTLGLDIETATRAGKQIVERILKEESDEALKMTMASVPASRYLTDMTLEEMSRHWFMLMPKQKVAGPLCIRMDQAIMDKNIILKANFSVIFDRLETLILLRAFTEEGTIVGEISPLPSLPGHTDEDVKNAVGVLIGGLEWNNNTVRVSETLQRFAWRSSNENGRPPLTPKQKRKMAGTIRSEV

In the case of `CN(C)c1ccc(NC(=O)Nc2ccc3snnc3c2)cc1`, the IC50 [1] is reported as 0.455 µM (active), the IC50 [2] is reported as > 100 µM (active) and the EC50 [3] is reported as > 29.9 µM (inactive). The EC50 [4] was > 29.9 µM (not active), the AC50 [5] was 0.204 µM (active) and the IC50 [6] was 0.187 µM (active).
For `CS(=O)(=O)c1nc(-c2ccco2)cc(C(F)(F)F)n1`, the EC50 [7] was 5.96 µM (active), the EC50 [8] was 1.61 µM (active) and the EC50 [9] was > 380 µM (inactive). The AC50 [10] was > 380 µM (inactive), the “Absolute IC50 (CHOP)” value [11] was 10 µM and the EC50 [12] was 6.49 µM (active). The EC50 [13] was 3.73 µM (active) and the IC50 [14] was 0.644 µM (active).
In the case of `COc1ccc([C@H]2CC(=O)C=C(c3ccc(OC)nc3)C2)cc1`, the EC50 [15] is reported as 3.19 µM (active).
In the case of `CCc1ccc(C(=O)COC(=O)c2cccs2)cc1`, the IC50 [16] is reported as > 50 µM (inactive).
